Experimental data: ChEMBL document CHEMBL5236615, “Discovery of Novel N-Heterocyclic-Fused Deoxypodophyllotoxin Analogues as Tubulin Polymerization Inhibitors Targeting the Colchicine-Binding Site for Cancer Treatment” (J Med Chem, 2022)

Columns and labels:
K562 = assay: cells; details: Homo sapiens, K562, 72 h
Description: Antiproliferative activity against human K562 cells measured after 72 hrs by MTT assay

MCF7 = assay: cells; details: Homo sapiens, MCF7, 72 h
Description: Antiproliferative activity against human MCF7 cells measured after 72 hrs by MTT assay

HCT-116 = assay: Antiproliferative activity against human HCT-116 cells measured after 72 hrs by MTT assay; assay type: functional, cell-based; details: HCT-116, 72 h
HT-29 = assay: Antiproliferative activity against human HT-29 cells measured after 72 hrs by MTT assay; assay type: functional, cell-based; details: HT-29, 72 h
[1] = Metabolic stability in human liver microsomes assessed as half life at 1 uM by LC/MS analysis; assay type: ADME, Microsome
[2] = Metabolic stability in human liver microsomes assessed as intrinsic clearance at 1 uM by LC/MS analysis; assay type: ADME, Microsome; details: read-out: CLH
[3] = Toxicity in Balb/c mouse assessed as pathological changes in blood aspartate aminotransferase level at 10 mg/kg, ip administered for every 2 days for 14 days; assay type: organism-based; details: in vivo, 336 h, time 14 day
[4] = Antitumor activity against paclitaxel-resistant human MCF7/TxR cells xenografted in Balb/c mouse assessed as tumor growth inhibition at 10 mg/kg, ip administered for every 2 days for 21 days; assay type: functional; details: 504 h, time 21 day, read-out: TGI
[5] = Antiproliferative activity against paclitaxel-resistant human A549/TxR cells measured after 72 hrs by MTT assay; assay type: functional, cell-based
[6] = Antiproliferative activity against paclitaxel-resistant human MCF7/TxR cells measured after 72 hrs by MTT assay; assay type: functional, cell-based
[7] = Toxicity in Balb/c mouse assessed as pathological changes in blood alanine aminotransferase level at 10 mg/kg, ip administered for every 2 days for 14 days; assay type: organism-based; details: in vivo, 336 h, time 14 day

Row | Structure (SMILES) | IC50 (K562) [nM] | IC50 (MCF7) [nM] | IC50 (HCT-116) [nM] | IC50 (HT-29) [nM] | half-life at 1 µM [1] [min] | CLint scaled at 1 µM [2] [mL/min/kg] | Activity [3] | inhibition in vivo at 10 mg/kg [4] [%] | IC50 [5] [nM] | IC50 [6] [nM] | Activity [7]
1 | COc1cc([C@@H]2c3cc4c(cc3C[C@H]3COC(=O)N32)OCCO4)cc(OC)c1Br | 39.5 | 37.5 | 103 | 48.4 | – | – | – | – | – | – | –
2 | COc1cc([C@@H]2c3cc4c(cc3C[C@H]3COC(=O)N32)OCO4)ccn1 | > 5000 | > 5000 | > 5000 | > 5000 | – | – | – | – | – | – | –
3 | COc1cc([C@@H]2c3cc4c(cc3C[C@H]3COC(=O)N32)OCCO4)cc2c1OCO2 | 29.6 | 35.4 | 50.9 | 44.3 | – | – | – | – | – | – | –
4 | COc1cc([C@@H]2c3cc4c(cc3C[C@H]3COC(=O)N32)OCCO4)cc(OC)c1OC | 17.1 | 17.3 | 6.8 | 14.9 | 2.19 | 794 | – | – | – | – | –
5 | COc1cc([C@@H]2c3cc4c(cc3C[C@H]3C(=O)NC(=O)N23)OCCO4)cc(F)c1OC | 29.5 | 21.9 | 20.1 | 26.3 | – | – | – | – | – | – | –
6 | COc1cc([C@@H]2c3cc4c(cc3C[C@H]3COC(=O)N32)OCCCO4)cc(OC)c1OC | 107 | 58.8 | 119 | 81.9 | – | – | – | – | – | – | –
7 | CCCN1CC(=O)N2[C@H](c3cc(OC)c(OC)c(OC)c3)c3cc4c(cc3C[C@H]2C1=O)OCO4 | > 5000 | > 5000 | > 5000 | > 5000 | – | – | – | – | – | – | –
8 | O=C1NC(=O)N2[C@H](c3cc(Cl)c(F)c(Cl)c3)c3cc4c(cc3C[C@@H]12)OCCO4 | 49 | 48.8 | 22.9 | 23.2 | 14.4 | 121 | – | – | – | – | –
9 | COc1cc([C@@H]2c3cc4c(cc3C[C@H]3C(=O)NC(=O)N23)OCCO4)cc([N+](=O)[O-])c1OC | 53.4 | 40.7 | 31.6 | 49.9 | – | – | – | – | – | – | –
10 | COc1cc([C@@H]2c3cc4c(cc3C[C@H]3COC(=O)N32)OCO4)cc(OC)c1O | > 5000 | > 5000 | > 5000 | > 5000 | – | – | – | – | – | – | –
11 | COc1c(Br)cc([C@H]2c3cc4c(cc3C[C@H]3C(=O)NC(=O)N23)OCCO4)cc1Br | > 5000 | > 5000 | > 5000 | > 5000 | – | – | – | – | – | – | –
12 | COc1cc([C@@H]2c3cc4c(cc3C[C@H]3C(=O)N(C)C(=S)N23)OCCO4)cc(OC)c1OC | > 5000 | > 5000 | > 5000 | > 5000 | – | – | – | – | – | – | –
13 | COc1cc([C@@H]2c3cc4c(cc3C[C@H]3C(=O)NC(=O)N23)OCCO4)cc(OC)c1OC | 31.9 | 16.9 | 27.2 | 21.4 | 21.4 | 81.2 | – | – | – | – | –
14 | COc1cc([C@@H]2c3cc4c(cc3C[C@H]3COC(=O)[C@@H]32)OCO4)cc(OC)c1OC [DESOXYPODOPHYLLOTOXIN] | 16 | 6 | 14.5 | 16.6 | 1.12 | 1440 | – | – | – | – | –
15 | COc1cc([C@@H]2c3cc4c(cc3C[C@H]3C(=O)NCC(=O)N23)OCO4)cc(OC)c1OC | 789 | 2330 | 1240 | 1920 | – | – | – | – | – | – | –
16 | COc1c(Cl)cc([C@@H]2c3cc4c(cc3C[C@H]3COC(=O)N32)OCCO4)cc1Cl | 6.3 | 5.9 | 5.8 | 6 | 2.95 | 589 | – | – | – | – | –
17 | O=C1OC[C@@H]2Cc3cc4c(cc3[C@@H](c3cc(C(F)(F)F)cc(C(F)(F)F)c3)N12)OCCO4 | 202 | 100 | 312 | 56.8 | – | – | – | – | – | – | –
18 | CC(=O)O[C@H]1C(=O)[C@@]2(C)[C@H]([C@H](OC(=O)c3ccccc3)[C@]3(O)C[C@H](OC(=O)[C@H](O)[C@@H](NC(=O)c4ccccc4)c4ccccc4)C(C)=C1C3(C)C)[C@]1(OC(C)=O)CO[C@@H]1C[C@@H]2O [PACLITAXEL] | 29.6 | 19.7 | 62.9 | 10.8 | – | – | Toxic | 28.6 | 1670 | 2750 | Toxic
19 | COc1cc([C@@H]2c3cc4c(cc3C[C@H]3COC(=O)N32)OCCCO4)cc2c1OCO2 | 193 | 965 | 137 | 611 | – | – | – | – | – | – | –
